Measured values taken from PubChem BioAssay AID1259246 (Broad Institute, 2017).
Results filed as inconclusive are left out. The source made the active and inactive calls.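 Rule for the calls: active = valid dose-response fit whose half-maximal growth-inhibiting concentration is at or below a set limit above the top tested dose; inconclusive = flat fit with effect between 30 and 70%, or poor fit; inactive = half-maximal concentration above a set limit.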

assay: antibacterial activity against Clostridioides difficile – 10-point retest, dose response (AID 1259246); conditions: Clostridioides difficile clinical isolate growth, OD600, 24 h; at 60 µM (top of the series)

SMILES | activity change, negative = inhibition
C[C@@H]1CN([C@H](C)CO)S(=O)(=O)c2ccc(/C=C/c3ccccc3)cc2O[C@H]1CN(C)C | 5.46% (inactive)
C[C@H]1CN([C@@H](C)CO)C(=O)c2cccc(NC(=O)Nc3ccc(C(F)(F)F)cc3)c2O[C@H]1CN(C)S(=O)(=O)c1ccc(Cl)cc1 | 28.2% (inactive)
C[C@@H]1CN([C@H](C)CO)C(=O)c2cc(C#CCc3ccccc3)cnc2O[C@H]1CN(C)CC1CCCC1 | 19.2% (inactive)
COc1ccccc1CNC(=O)C[C@H]1C[C@@H]2c3cc(NC(=O)C4CCC4)ccc3O[C@@H]2[C@@H](CO)O1 | 2.54% (inactive)
O=C(O)C[C@H]1C[C@@H]2c3cc(NC(=O)C4CCC4)ccc3O[C@@H]2[C@@H](CO)O1 | -2.3% (inactive)

same assay, conditions: Clostridioides difficile clinical isolate growth, OD600, 24 h; at 120 µM (top of the series)

SMILES | activity change, negative = inhibition
CO[C@@H]1CN(C)C(=O)c2ccc(NC(=O)c3nc4ccccc4s3)cc2OC[C@H](C)N(Cc2ccncc2)C[C@H]1C | 7.34% (inactive)
O=C(C[C@H]1C[C@@H]2c3cc(NC(=O)NC4CCCC4)ccc3O[C@@H]2[C@@H](CO)O1)NCc1ccc2c(c1)OCO2 | -10.4% (inactive)
CNC[C@H]1OCCCC[C@H](C)Oc2ccc(NC(=O)Nc3cccc4ccccc34)cc2C(=O)N([C@H](C)CO)C[C@@H]1C | 11.4% (inactive)
C[C@@H]1CN([C@@H](C)CO)S(=O)(=O)c2ccc(Br)cc2O[C@H]1CN(C)Cc1cccnc1 | 2.31% (inactive)
C[C@@H]1CN([C@@H](C)CO)C(=O)c2cccc(NC(=O)Nc3ccc(C(F)(F)F)cc3)c2O[C@H]1CN(C)C(=O)NC1CCCCC1 | 15.3% (inactive)
C[C@@H]1CN([C@@H](C)CO)C(=O)Cc2cc(NC(=O)CCCN(C)C)ccc2O[C@H]1CN(C)C(=O)Nc1ccccc1 | -1.61% (inactive)
C[C@@H]1CN([C@H](C)CO)S(=O)(=O)c2ccc(C#CC3CCCCC3)cc2O[C@@H]1CN(C)Cc1cccnc1 | 20.4% (inactive)
CC(C)CC#Cc1ccc2c(c1)O[C@@H](CN(C)Cc1ccccc1)[C@H](C)CN([C@@H](C)CO)S2(=O)=O | 32.1% (inactive)
Cc1ccc(-c2ccc3c(c2)O[C@@H](CN(C)Cc2cccnc2)[C@H](C)CN([C@@H](C)CO)S3(=O)=O)cc1 | 10.2% (inactive)
C[C@@H]1CN([C@@H](C)CO)S(=O)(=O)c2ccc(/C=C/c3ccccc3)cc2O[C@H]1CN(C)C(=O)Nc1ccc(F)cc1 | 32.6% (inactive)
C[C@@H]1CN([C@@H](C)CO)S(=O)(=O)c2ccc(/C=C/c3ccccc3)cc2O[C@H]1CN(C)Cc1cccnc1 | 71.2% (inactive)
CO[C@H]1CN(C)C(=O)c2cc(NC(=O)c3ccc(Oc4ccccc4)cc3)ccc2OC[C@H](C)NC[C@H]1C | 31.6% (inactive)
Cc1ccc(-c2ccc3c(c2)O[C@@H](CN(C)Cc2ccncc2)[C@H](C)CN([C@@H](C)CO)S3(=O)=O)cc1 | 21.6% (inactive)
C[C@@H]1CN([C@@H](C)CO)C(=O)Cc2cc(NC(=O)C3CC3)ccc2O[C@@H]1CN(C)Cc1ccc(Oc2ccccc2)cc1 | 21.3% (inactive)
C[C@@H]1CN([C@@H](C)CO)C(=O)c2cccc(NC(=O)Nc3ccc(C(F)(F)F)cc3)c2O[C@@H]1CN(C)S(=O)(=O)c1ccc(Cl)cc1 | 22.7% (inactive)
CC(C)CC#Cc1ccc2c(c1)O[C@H](CN(C)CC1CCOCC1)[C@H](C)CN([C@@H](C)CO)S2(=O)=O | 15.6% (inactive)
C[C@H](CO)N1C[C@H](C)[C@H](CN(C)Cc2cccnc2)Oc2cc(C#CC3CCCCC3)ccc2S1(=O)=O | 24.1% (inactive)
C[C@H]1CN([C@@H](C)CO)C(=O)c2cccc(NC(=O)Nc3ccc(C(F)(F)F)cc3)c2O[C@H]1CN(C)S(=O)(=O)c1ccc(Cl)cc1 | 51.5% (inactive)
C[C@@H]1CN([C@H](C)CO)C(=O)c2cccc(NC(=O)Nc3ccc(C(F)(F)F)cc3)c2O[C@@H]1CN(C)C(=O)NC1CCCCC1 | 7.85% (inactive)
C[C@@H]1CN([C@@H](C)CO)C(=O)c2cc(NC(=O)NC3CCCCC3)ccc2O[C@@H]1CN(C)C(=O)Nc1ccc(F)cc1 | 58.5% (inactive)
O=C(C[C@H]1C[C@H]2c3cc(NC(=O)Nc4ccccc4)ccc3O[C@H]2[C@H](CO)O1)NC1CCCC1 | -1.4% (inactive)
C[C@H]1CN([C@@H](C)CO)C(=O)c2cccc(NC(=O)Nc3ccc(C(F)(F)F)cc3)c2O[C@@H]1CN(C)Cc1ccc(-c2ccccc2)cc1 | 31.9% (inactive)

SMILES | activity change, negative = inhibition
CO[C@@H]1CN(C)C(=O)c2ccc(NC(=O)c3nc4ccccc4s3)cc2OC[C@@H](C)N(Cc2ccncc2)C[C@H]1C | 28.6% (inactive)
C[C@@H]1CN([C@H](C)CO)C(=O)Cc2cc(NC(=O)CCCN(C)C)ccc2O[C@@H]1CN(C)Cc1ccc(Oc2ccccc2)cc1 | 22.2% (inactive)
C[C@H](CO)N1C[C@H](C)[C@@H](CN(C)Cc2ccc3c(c2)OCO3)Oc2c(NC(=O)Nc3ccc(C(F)(F)F)cc3)cccc2C1=O | 28.9% (inactive)
CO[C@H]1CN(C)C(=O)c2cc(NC(=O)c3nc4ccccc4s3)ccc2OC[C@@H](C)N(Cc2ccncc2)C[C@@H]1C | 5.15% (inactive)
C[C@H](CO)N1C[C@H](C)[C@@H](CN(C)C(=O)Nc2ccc(F)cc2)OCCCC[C@H](C)Oc2ccc(NC(=O)Nc3cccc4ccccc34)cc2C1=O | 40.4% (inactive)
COc1ccccc1S(=O)(=O)N(C)C[C@@H]1Oc2cc(/C=C/c3ccccc3)ccc2S(=O)(=O)N([C@@H](C)CO)C[C@H]1C | 32.3% (inactive)
CO[C@H]1CN(C)C(=O)c2cc(NC(=O)c3ccc(-c4ccccc4)cc3)ccc2OC[C@H](C)NC[C@H]1C | 25.8% (inactive)
COc1ccc(-c2ccc([C@H]3[C@H](C#N)N(C(=O)NC4CCCCC4)[C@H]3CO)cc2)cc1 | 7.21% (inactive)
CO[C@@H]1CN(C)C(=O)c2ccc(NC(=O)C3CCC3)cc2OC[C@@H](C)N(Cc2ccncc2)C[C@H]1C | -0.707% (inactive)
O=C(C[C@@H]1C[C@@H]2c3cc(NC(=O)Nc4ccc(F)cc4)ccc3O[C@@H]2[C@@H](CO)O1)NC1CCCCC1 | -8.47% (inactive)
C[C@@H]1CN([C@@H](C)CO)C(=O)Cc2cc(NC(=O)CCCN(C)C)ccc2O[C@H]1CN(C)Cc1ccc(C(F)(F)F)cc1 | 23.8% (inactive)
CO[C@H]1CN(C)C(=O)c2ccc(NC(=O)c3nc4ccccc4s3)cc2OC[C@H](C)N(Cc2ccncc2)C[C@H]1C | 18.4% (inactive)
C[C@H]1CN([C@@H](C)CO)C(=O)Cc2cc(NC(=O)C3CC3)ccc2O[C@H]1CN(C)Cc1ccc(-c2ccccc2)cc1 | 18.3% (inactive)
CC(C)CC#Cc1ccc2c(c1)O[C@H](CN(C)Cc1ccc3c(c1)OCO3)[C@H](C)CN([C@H](C)CO)S2(=O)=O | 15.4% (inactive)
Cc1ccc(S(=O)(=O)N[C@H]2CC[C@H](CCNC(=O)c3ccc4c(c3)OCO4)O[C@H]2CO)cc1 | -3.6% (inactive)
CC(C)CC#Cc1ccc2c(c1)O[C@@H](CN(C)Cc1ccc3c(c1)OCO3)[C@@H](C)CN([C@@H](C)CO)S2(=O)=O | 22.9% (inactive)
C[C@@H]1CN([C@@H](C)CO)C(=O)Cc2cc(NC(=O)C3CC3)ccc2O[C@@H]1CN(C)Cc1ccc(C(F)(F)F)cc1 | 21.2% (inactive)
CC(C)NC(=O)N(C)C[C@@H]1OCCCC[C@H](C)Oc2ccc(NC(=O)Nc3cccc4ccccc34)cc2C(=O)N([C@H](C)CO)C[C@@H]1C | 60.5% (inactive)
C[C@@H]1CN([C@H](C)CO)C(=O)Cc2cc(NC(=O)C3CC3)ccc2O[C@@H]1CN(C)Cc1ccc(Cl)c(Cl)c1 | 27.9% (inactive)
C[C@@H]1CN([C@H](C)CO)C(=O)c2cccc(NC(=O)Nc3ccc(C(F)(F)F)cc3)c2O[C@H]1CN(C)S(=O)(=O)c1ccc(Cl)cc1 | 48.2% (inactive)
Cc1noc(C)c1NC(=O)Nc1cccc2c1O[C@H](CN(C)Cc1ccc(Cl)c(Cl)c1)[C@H](C)CN([C@@H](C)CO)C2=O | 28.7% (inactive)
N#C[C@H]1[C@@H](c2ccc(C#CC3CCCCC3)cc2)[C@@H](CO)N1C(=O)Cc1ccccn1 | 40.2% (inactive)

same assay, conditions: Clostridioides difficile clinical isolate growth, OD600, 24 h; at 135 µM (top of the series)

SMILES | activity change, negative = inhibition
C[C@@H]1CN([C@@H](C)CO)C(=O)Cc2cc(NS(=O)(=O)c3ccccc3)ccc2O[C@@H]1CN(C)Cc1ccc(-c2ccccc2)cc1 | 17.3% (inactive)
C[C@@H]1CN([C@@H](C)CO)C(=O)Cc2cc(NC(=O)C3CC3)ccc2O[C@@H]1CN(C)Cc1ccc(Cl)c(Cl)c1 | 16.4% (inactive)
C[C@@H]1CN([C@H](C)CO)C(=O)Cc2cc(NS(=O)(=O)c3ccccc3)ccc2O[C@@H]1CN(C)Cc1ccc(-c2ccccc2)cc1 | 31.9% (inactive)
CO[C@H]1CN(C)C(=O)c2cc(NC(=O)c3ccc(-c4ccccc4)cc3)ccc2OC[C@H](C)NC[C@H]1C | 102% (inactive)
C[C@@H]1CN([C@H](C)CO)C(=O)Cc2cc(NC(=O)C3CC3)ccc2O[C@H]1CN(C)C | 32.9% (inactive)
C[C@H](CO)N1C[C@H](C)[C@H](CN(C)Cc2ccc(-c3ccccc3)cc2)Oc2ccc(NC(=O)C3CC3)cc2CC1=O | 13.1% (inactive)
CNC[C@H]1Oc2ccc(NC(=O)C3CC3)cc2CC(=O)N([C@@H](C)CO)C[C@H]1C | -0.275% (inactive)
COc1ccccc1CNC(=O)C[C@H]1C[C@H]2c3cc(NC(=O)NC4CCCC4)ccc3O[C@H]2[C@@H](CO)O1 | 4.17% (inactive)
CO[C@@H]1CN(C)C(=O)c2cc(NC(=O)c3nc4ccccc4s3)ccc2OC[C@H](C)N(Cc2ccncc2)C[C@H]1C | 7% (inactive)
O=C(C[C@H]1C[C@@H]2c3cc(NC(=O)C4CCC4)ccc3O[C@@H]2[C@H](CO)O1)NCc1ccc(Cl)cc1 | 4.22% (inactive)
C[C@@H]1CN([C@H](C)CO)C(=O)Cc2cc(NC(=O)c3ccncc3)ccc2O[C@@H]1CN(C)Cc1ccc(-c2ccccc2)cc1 | 20.6% (inactive)
